From US20070248672A1, “Indole and Azaindole Derivatives with Antitumor Action” (priority 2004, published 2007)
“Also recorded” adds a separate entry of the source. Like-named read-outs stand apart in the source and are kept apart here.

Legend:
[1] = molecular target: Vacuolar ATPase in bovine chromaffin cells membranes (BCG) (Bos taurus, UniProt P23956+Q29466); test: Vacuolar ATPase inhibition in bovine chromaffin cells membranes (BCG); type: biochemical; details: read-out: ATPase activity (IC50) BCG; bovine chromaffin cell membranes
Sequence of Vacuolar ATPase in bovine chromaffin cells membranes (BCG) (P23956 whole entry, looked up): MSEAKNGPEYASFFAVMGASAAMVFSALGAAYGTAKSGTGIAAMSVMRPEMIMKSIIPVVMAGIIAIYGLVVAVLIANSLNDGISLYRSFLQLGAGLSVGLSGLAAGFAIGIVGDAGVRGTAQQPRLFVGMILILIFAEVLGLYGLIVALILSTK
Sequence of Vacuolar ATPase in bovine chromaffin cells membranes (BCG) (Q29466 whole entry, looked up): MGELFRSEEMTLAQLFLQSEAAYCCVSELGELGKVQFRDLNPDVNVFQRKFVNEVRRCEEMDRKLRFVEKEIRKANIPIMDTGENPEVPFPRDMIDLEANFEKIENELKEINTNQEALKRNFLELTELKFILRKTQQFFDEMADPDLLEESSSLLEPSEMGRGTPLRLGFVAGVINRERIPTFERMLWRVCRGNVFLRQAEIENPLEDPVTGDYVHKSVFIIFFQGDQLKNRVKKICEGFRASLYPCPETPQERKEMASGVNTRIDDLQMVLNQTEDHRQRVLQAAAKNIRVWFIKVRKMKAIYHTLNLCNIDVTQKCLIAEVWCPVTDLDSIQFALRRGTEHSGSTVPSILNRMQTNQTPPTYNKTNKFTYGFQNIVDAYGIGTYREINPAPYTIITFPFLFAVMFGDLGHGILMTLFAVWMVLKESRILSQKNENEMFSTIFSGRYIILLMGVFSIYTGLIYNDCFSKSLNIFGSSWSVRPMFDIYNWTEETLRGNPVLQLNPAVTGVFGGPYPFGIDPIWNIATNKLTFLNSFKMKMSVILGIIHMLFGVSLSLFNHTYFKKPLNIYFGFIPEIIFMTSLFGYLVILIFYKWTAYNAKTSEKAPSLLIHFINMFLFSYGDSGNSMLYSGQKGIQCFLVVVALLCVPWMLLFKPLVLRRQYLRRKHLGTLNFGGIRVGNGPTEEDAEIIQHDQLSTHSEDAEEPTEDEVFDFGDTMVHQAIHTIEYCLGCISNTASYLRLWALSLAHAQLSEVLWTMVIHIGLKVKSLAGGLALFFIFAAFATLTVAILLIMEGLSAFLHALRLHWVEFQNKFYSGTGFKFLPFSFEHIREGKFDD
Description: Inhibition of bafilomycin sensitive ATPase activity is assayed by measuring the release of inorganic phosphate during 30 minutes of incubation, at 37° C., of the human osteoclastoma microsomal fraction in 96-well plates. The reaction medium contains 1 mM ATP, 10 mM Hepes-Tris buffer pH 8, 50 mM KCl, 5 μM valinomycin, 5 μM nigericin, 1 mM CDTA-Tris, 100 μM ammonium molybdate, 0.2 M sucrose and the microsomal fraction (20 μg protein/ml). The reaction is initiated by adding MgSO4 and terminated, after 30 minutes, by adding 4 volumes of the reagent malachite green, prepared according to Chan K., Anal. Biochem. 157, 375-380, 1986.
1.2 Determination of Vacuolar ATpase Inhibition in the Bovine Chromaffin Cells Membranes (BCG)
About 20 adrenal glands (Cidon S., J. Biol. Chem. 258, 2892-2898, 1983) are removed from healthy bovines; the medulla is quickly separated from the cortex, which is discarded. The medulla is homogenised at 4° C. with a suitable medium at pH 7.5, then filtered. The remaining solid material is further homogenised, filtered and recombined with the preceding filtrate, resuspended and centrifuged at 1000 g for 15 minutes; the supernatant obtained is centrifuged at 10000 g for 20 minutes. The resultant pellet is resuspended and stratified through a sucrose gradient formed of a lower part of 15 ml 1.5 M sucrose and an upper part of 10 ml 1.2 M sucrose. After overnight centrifugation at 4° C. with a SW28 rotor at 20000 rpm, the chromaffiln cells sediment into a pellet. This latter is resuspended, centrifuged at 3000 g for 10 minutes, and the supernatant obtained is centrifuged at 200000 g for 60 minutes. The pellet is then resuspended in 4 ml of a suitable medium containing 0.2 μg/ml pepstatin A and 0.4 μg/ml leupeptin and stored under liquid nitrogen.
The method for ATPase inhibition assay is the same as that followed for the osteoclastoma.

HT29/Mit cells [2] = test: Antiproliferative activity, 72 h treatment, SRB assay, HT29/Mit resistant line; type: cell-based, human; details: Homo sapiens
Description: HT29 and HT29/Mit (line obtained by prolonged exposure to mitoxantrone, and characterised by overexpression of BCRP, which confers cross resistance to topotecan, irinotecan and to its metabolite SN38): maintained in McCoy 5A medium+10% FCS.
2.2 Scheme of the Antiproliferative Activity Experiment (Treatment Time: 72 Hours)
(§1) The cells (HT29 and HT29/Mit: 40,000 cells/ml, LoVo, LoVo/Dx and HCT116: 50,000 cells/ml) are seeded in 100 μl of the respective culture media in 96-well plates. 24 hours after seeding, an aliquot (10 μl) of drug at the various concentrations is added. In the samples in which the effect of the combination of two compounds is to be tested the inhibitor is added immediately before the cytotoxic. For each dose or combination of doses/drugs the effect of the treatment is determined in 4-8 replicates.
(§2) After 72 hours of treatment the antiproliferative effect is evaluated using the sulforhodamine B (SRB) assay: the cells are fixed by adding 25 μl of 50% TCA to each well and left for 1 hour at 4° C. After washing them with water and allowing them to dry, 100 μl of 0.4% SRB in 1% acetic acid are added and left for 30 minutes at room temperature. After 4 washes in 1% acetic acid, they are left to dry then the dye fixed by the proteins is dissolved under basic conditions with 100 μl 10 mM cold Tris and the solution is read using a spectrophotometer at 550 nm.
(§3) Percentage cell growth is calculated as the optical density of treated samples compared to the optical density of controls (untreated cells).

HT29/Mit cells [3] = test: Co-treatment with topotecan, HT29/Mit resistant cells (Combination Index according to Kern); type: cell-based, human; details: HT29/Mit; compound at non-toxic concentrations 0.01-0.1 μM
Description: as §1, §2, §3
(§4) The Combination Index (C.I.) was determined according to Kern's method, 1988 (who continued from Drewinko B, 1976) (Kem D. H., Cancer Res. 48, 117-121, 1988; Drewinko B., Cancer Biochem. Biophys. 1, 187-195, 1976) by means of the following formula: […], where SFa and SFb are the fractions of cells surviving to treatment with compound a and b, respectively; SFab is the fraction surviving to the combination of compounds a and b. If the result is =1, the interaction between the two compounds is additive; if it is >1, the interaction between the two compounds is synergistic; if it is <1, the interaction between the two compounds is antagonistic.

[4] = system: HT29/Mit human colon carcinoma xenografts; test: HT29/Mit human colon carcinoma xenograft, antitumor activity; type: in vivo, athymic Swiss nude mice
From the text: 1.1 Model of HT29/Mit human colon carcinoma xenografts-Antitumor activity Female athymic Swiss nude mice (8-10 weeks old) (Charles River, Calco, Italy) were used for the experiments. The animals were maintained at constant temperature and humidity, and were allowed to eat and drink freely. The experimental protocol was approved by the Ethics Committee for Animal Experimentation of the Istituto Nazionale Tumori of Milan. The antitumour effectiveness of the compounds of the invention under discussion was tested on athymic mouse models implanted with HT29 and/or HT29/Mit tumour cells: this latter variety is highly resistant to topotecan treatment. The tumour cells were implanted in vivo via subcutaneous injection of 10^7 cells taken from in vitro cultures. Randomized groups of five mice with bilateral subcutaneous tumours were used for the experiment. Topotecan or other known antitumour agents (dissolved in distilled water or an appropriate solvent) and the compounds of the invention (dissolved in Cremophor EL: ethanol: saline solution in the proportions 5:5:90, or in an appropriate solvent) were administered orally from the third day, alone or in combination, in agreement with a treatment scheme selected in an appropriate manner depending on the type of compound to be studied. The weight (or volume) of the tumour in treated mice compared to controls is represented graphically on the y-axis against time (x-axis).

tumour cells = test: Antiproliferative effect on tumour cells, combined treatment with known antitumour agents; type: cell-based; details: with topotecan, SN38, taxol, doxorubicin and anthracyclines
Description: as §1, §4

**Q.** Which IC50 [1] does the source give for COC(=O)c1[nH]c2cc(OC)c(OC)cc2c1-c1ccc(OC)cc1 [Example 1, 5,6-Dimethoxy-3-(4-methoxy-phenyl)-1H-indole-2-carboxylic acid methyl ester] here?
**A.** Its IC50 is 644 nM.

**Q.** And the IC50 (HT29/Mit cells [2]; HT-29, HT29/Mit, after 72 hours of treatment, range stated for the group, read-out: IC50 values in the resistant line)?
**A.** Its IC50 is 100 to 3000 nM.

**Q.** What about the IC50 (HT29/Mit cells [2]; HT-29/Mit resistant line, 72 h treatment, read-out: Antiproliferative activity (IC50 ± S.D.) HT-29/Mit) of the same molecule?
**A.** Its IC50 is 1000 ± 900 nM.

**Q.** What about the “effect of co-treatment with topotecan” value (HT29/Mit cells [3]) of the same molecule?
**A.** The value was “synergism; also recorded: clear synergistic effect”.

**Q.** And the “antitumoral efficacy of combined administration with topotecan” value ([4]; 30 mg/kg p.o. with topotecan 1 or 2 mg/kg p.o., statistically significant with 1 mg topotecan)?
**A.** Its value is “increased antitumoral efficacy”.

**Q.** What about the tumor growth inhibition ([4]; administered alone, 30 mg/kg p.o., after 7 days of treatment, statistically significant) of the same molecule?
**A.** The tumor growth inhibition was 43%.

**Q.** And the “effect in combination with cytotoxic agents” value (tumour cells)?
**A.** The value was “marked synergistic effects”.
